Patent publication US7462646B2, “Osteoclastogenesis inhibitors and uses thereof” (Research Development Foundation, priority 2003, dated 2008)

Columns and labels:
[1] = test system: NF-κB; test: RANKL-induced NF-κB activation by EMSA in RAW 264.7 cells; assay type: cell-based, mouse
Method: (§1) RAW264.7 cells (1×10^6 cells) were incubated with variable concentrations of guggulsterone for 4 h followed by treatment of the cells with RANKL (10 nM) for 25 min. The samples were then analyzed for NF-κB by EMSA. […] RAW264.7 cells (5×10^6 cells) were incubated with guggulsterone (50 μM) for 4 h followed by treatment of the cells with RANKL (10 nM) for different times. The samples were then analyzed for IKK by immune complex kinase assay.
RAW264.7 cells (1×10^6 cells) were incubated with 1′-Acetoxychavicol (50 μM) and RANKL (10 nm) for different times. The samples were then analyzed for NF-κB by EMSA. […] RAW264.7 cells (1×10^6 cells) were incubated with variable concentrations of 1′-Acetoxychavicol and RANKL (10 nM) for 25 min. The samples were then analyzed for NF-κB by EMSA.
Nuclear extracts were prepared as described earlier (Bharti et al., 2003). Briefly, 2×10^6 RAW264.7 cells were washed with cold PBS, scraped, and suspended in 0.4 ml of hypotonic lysis buffer containing protease inhibitors for 30 min. The cells were then lysed with 12.5 μl of 10% Nonidet P-40. The homogenate was centrifuged, and supernatant containing the cytoplasmic extracts was stored frozen at −80° C. The nuclear pellet was re-suspended in 25 μl ice-cold nuclear extraction buffer. After 30 min of intermittent mixing, the extract was centrifuged, and supernatants containing nuclear extracts were secured. The protein content was measured by the Bradford method. If the extracts were not used immediately, they were stored at −80° C.
NF-κB activation was analyzed by electrophoretic mobility gel shift assay as described (Chaturvedi et al., 1994). […] The radioactive bands from the dried gels were visualized and quantitated by the Phosphorlmager (Molecular Dynamics, Sunnyvale, Calif.) using ImageQuant software.

[2] = test system: IκBα; test: RANKL-induced IκBα degradation by Western blotting in RAW 264.7 cells; assay type: cell-based, mouse
Method: (§2) RAW264.7 cells (1×10^6 cells) were incubated with 1′-Acetoxychavicol (50 μM) and RANKL (10 nM) for different times. The samples were then analyzed for IκBα by western blot. […] RAW264.7 cells (1×10^6 cells) were incubated with different combinations of 1′-Acetoxychavicol (50 μM), RANKL (10 nM), acetyl-leucyl-leucyl-norleucinal (ALLN, 50 μg/ml) for 25 min. The samples were analyzed for phosphorylated IκBα by western blot.
(§3) Thirty to fifty micrograms of cytoplasmic protein extracts were resolved on 10% SDS-PAGE gel. After electrophoresis, the proteins were electrotransferred to a nitrocellulose membrane, blocked with 5% nonfat milk, and probed with antibodies against either IκBα, phospho-IκBα, IKKα, IKKβ, or β-actin (1:3000) for 1 h. Thereafter, the blot was washed, exposed to HRP-conjugated secondary antibodies for 1 h, and finally detected by chemiluminescence (ECL, Amersham Pharmacia Biotech, Arlington Heights, Ill.).

[3] = test system: phospho-IκBα; test: RANKL-induced IκBα phosphorylation by Western blotting in RAW 264.7 cells; assay type: cell-based, mouse; settings: for RANKL-induced phosphorylation of IκBα: RANKL 10 nM
Method: as §2, §3

[4] = test system: RAW 264.7 cells; test: Osteoclast differentiation assay (RANKL-induced, TRAP staining); assay type: cell-based, mouse
Method: Cells were cultured for 5 days after RANKL treatment and stained for TRAP expression. […] Values indicate mean of total osteoclasts in triplicate cultures (error bar indicates s.d.).
RAW264.7 cells (1×10^4 cells) were incubated with guggulsterone (5 μM) and RANKL (5 nM) for different days. The samples were then analyzed for osteoclastogenesis by TRAP assay. […]
RAW264.7 cells were cultured in 24-well dishes at a density of 1×10^4 cells per well and were allowed to adhere overnight. Medium was then replaced and the cells were treated with 100 ng/ml (˜5 nM) RANKL. At day 5, cultures were stained for TRAP expression as described (Shevde et al., 2000) using an acid phosphatase kit, and the total number of TRAP-positive multinucleated osteoclasts (>3 nuclei) per well were counted.

[5] = test system: RAW264.7 cells incubated with MDA-MB-468 cells; test: MDA-MB-468 breast adenocarcinoma cells-induced osteoclastogenesis (TRAP assay); assay type: cell-based, mouse; settings: five days
Method: (§4) RAW264.7 cells (1×10^4 cells) were incubated either with MDA-MB-468 cells (1×10^3 cells) or with MCF-7 cells (1×10^3 cells) in the presence of varying concentrations of 1′-Acetoxychavicol for five days and then analyzed for osteoclastogenesis by TRAP assay.
(§5) RAW264.7 cells (1×10^4 cells) were incubated with MDA-MB-468 cells (1×10^3 cells) or with MCF-7 cells (1×10^3 cells) in the presence of varying concentrations of guggulsterone for five days and then analyzed for osteoclastogenesis by TRAP assay.
(§6) The ability of tumor cells to induce osteoclastogenesis was also investigated in this study. Cells from head and neck squamous cell carcinoma and breast adenocarcinoma were used for this purpose. Briefly, RAW264.7 cells were incubated with different numbers of cells of head and neck squamous cell carcinoma (HN5, Fadu) or breast adenocarcinoma (MDA-MB-468, MCF-7) and then analyzed for osteoclastogenesis by TRAP assay.

[6] = test system: RAW264.7 cells incubated with MCF-7 cells; test: MCF-7 breast adenocarcinoma cells-induced osteoclastogenesis (TRAP assay); assay type: cell-based, mouse; settings: five days
Method: as §4, §5, §6

[7] = biological target: T1, IκB kinase (IKK) (Mus musculus, UniProt O88351+Q60680); test: IκB kinase (immune complex kinase) assay on extracts of treated RAW 264.7 cells; assay type: cell-based
T1 construct: 200 μg cytoplasmic extracts were immunoprecipitated with 1 μg of anti-IKKα and anti-IKKβ antibodies each; endogenous in cells; host or cells: RAW 264.7 (mouse macrophage cell line), cytoplasmic extracts, immunoprecipitated with anti-IKKα and anti-IKKβ
T1 sequence (Q60680 whole entry): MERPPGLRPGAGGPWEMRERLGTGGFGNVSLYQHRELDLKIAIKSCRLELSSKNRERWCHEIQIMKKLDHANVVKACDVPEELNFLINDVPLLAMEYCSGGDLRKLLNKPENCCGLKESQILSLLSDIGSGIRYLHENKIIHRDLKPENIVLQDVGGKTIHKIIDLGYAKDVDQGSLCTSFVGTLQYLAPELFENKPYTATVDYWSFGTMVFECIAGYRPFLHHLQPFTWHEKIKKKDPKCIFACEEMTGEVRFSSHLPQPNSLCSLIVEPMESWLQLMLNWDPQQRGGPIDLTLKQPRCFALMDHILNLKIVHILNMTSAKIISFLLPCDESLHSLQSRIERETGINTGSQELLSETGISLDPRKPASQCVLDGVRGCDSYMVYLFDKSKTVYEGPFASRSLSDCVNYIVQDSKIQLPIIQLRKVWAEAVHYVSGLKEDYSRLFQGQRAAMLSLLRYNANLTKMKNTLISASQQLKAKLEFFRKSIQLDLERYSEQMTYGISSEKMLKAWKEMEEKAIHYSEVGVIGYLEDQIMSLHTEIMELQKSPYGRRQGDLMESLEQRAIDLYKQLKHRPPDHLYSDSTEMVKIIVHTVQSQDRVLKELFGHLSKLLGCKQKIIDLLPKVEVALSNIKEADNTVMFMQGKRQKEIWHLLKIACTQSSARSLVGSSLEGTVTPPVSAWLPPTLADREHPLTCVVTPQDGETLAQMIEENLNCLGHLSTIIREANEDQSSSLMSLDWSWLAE
T1 sequence (O88351 whole entry): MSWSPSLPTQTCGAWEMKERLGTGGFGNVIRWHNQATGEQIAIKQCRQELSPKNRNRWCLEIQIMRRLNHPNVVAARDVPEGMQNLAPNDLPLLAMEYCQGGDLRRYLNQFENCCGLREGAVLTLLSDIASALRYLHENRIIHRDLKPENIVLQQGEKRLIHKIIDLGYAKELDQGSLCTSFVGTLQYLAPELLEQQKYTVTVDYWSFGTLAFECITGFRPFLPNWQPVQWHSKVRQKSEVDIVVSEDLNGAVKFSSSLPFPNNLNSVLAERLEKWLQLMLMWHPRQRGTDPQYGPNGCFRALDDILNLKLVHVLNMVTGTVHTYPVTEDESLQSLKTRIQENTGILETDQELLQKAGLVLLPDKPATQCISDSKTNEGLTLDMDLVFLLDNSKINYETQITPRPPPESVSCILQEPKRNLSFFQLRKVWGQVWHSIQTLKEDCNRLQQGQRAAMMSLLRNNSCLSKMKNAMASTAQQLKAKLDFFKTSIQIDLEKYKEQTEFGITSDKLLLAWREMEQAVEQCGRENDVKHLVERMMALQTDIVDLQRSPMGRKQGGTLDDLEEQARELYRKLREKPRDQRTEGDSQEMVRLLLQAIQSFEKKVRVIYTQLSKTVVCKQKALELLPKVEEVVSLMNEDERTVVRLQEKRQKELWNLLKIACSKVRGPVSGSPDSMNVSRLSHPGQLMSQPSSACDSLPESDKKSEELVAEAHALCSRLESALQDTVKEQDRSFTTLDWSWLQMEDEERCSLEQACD
T1 sequence (O88522 whole entry partner): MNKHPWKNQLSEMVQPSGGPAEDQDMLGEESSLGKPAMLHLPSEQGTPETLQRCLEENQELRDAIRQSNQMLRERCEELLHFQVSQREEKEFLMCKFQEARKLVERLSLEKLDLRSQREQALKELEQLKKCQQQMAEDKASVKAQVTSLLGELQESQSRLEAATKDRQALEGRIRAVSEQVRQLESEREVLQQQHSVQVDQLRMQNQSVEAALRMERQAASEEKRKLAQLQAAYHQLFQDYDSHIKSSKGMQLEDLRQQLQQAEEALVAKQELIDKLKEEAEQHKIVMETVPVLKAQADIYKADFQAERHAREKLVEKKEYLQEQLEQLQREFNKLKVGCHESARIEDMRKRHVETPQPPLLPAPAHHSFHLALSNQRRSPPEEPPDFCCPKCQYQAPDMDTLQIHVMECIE
Method: as §1

[8] = test system: IKKα; test: IKKα protein expression by Western blotting; assay type: cell-based, mouse; settings: curcumin 50 μM; FIG. 2C middle/lower panel
Method: as §3
(§7) The IκB kinase assay was performed by a modified method as described earlier (Manna et al., 2000). Briefly, 200 μg cytoplasmic extracts were immunoprecipitated with 1 μg of anti-IKKα and anti-IKKβ antibodies each, and the immune complexes so formed were precipitated with 0.01 ml of protein A/G-Sepharose beads for 2 hours. The beads were washed first with lysis buffer and then with the kinase assay buffer (50 mM HEPES pH 7.4, 20 mM MgCl2, and 2 mM DTT). The immune complex was then assayed for kinase activity usinig kinase assay buffer containing 20 μCi [γ-^32P] ATP, 10 μM unlabeled ATP, and 2 μg/sample glutathione S-transferase-IκBα (amino acids 1-54). After incubation at 30° C. for 30 min, the mixture was boiled with 6×SDS sample buffer to stop the reaction. […] The radioactive bands of the dried gel were visualized and quantitated by Phosphorlmager. […]

[9] = test system: IKKβ; test: IKKβ protein expression by Western blotting; assay type: cell-based, mouse; settings: curcumin 50 μM; FIG. 2C middle/lower panel
Method: as §3, §7

[10] = curcumin 10 μM, RANKL 5 nM, 5 days, FIG. 4

C=CC(OC(C)=O)c1ccc(O)cc1 (stereo not shown) [1′-Acetoxychavicol]
RANKL-induced NF-κB activation (EMSA), time course ([1]; 1′-Acetoxychavicol 50 μM and RANKL 10 nM for different times, FIG. 9A): suppressed RANKL-induced NF-κB activation in time-dependent manner | concentration of 1′-Acetoxychavicol at which maximal inhibition of RANKL-induced NF-κB activation was observed ([1]; RANKL 10 nM 25 min, FIG. 9B): 50 µM | RANKL-induced NF-κB activation (EMSA), dose dependence ([1]; variable concentrations of 1′-Acetoxychavicol and RANKL 10 nM for 25 min, FIG. 9B): suppressed RANKL-induced NF-κB activation in a dose-dependent manner | RANKL-induced IκBα level (degradation) ([2]; 1′-Acetoxychavicol 50 μM and RANKL 10 nM for different times, FIG. 10A): no decrease in the RANKL-induced IκBα level | RANKL-induced phosphorylation of IκBα ([3]; 1′-Acetoxychavicol 50 μM, ALLN 50 μg/ml, 25 min, FIG. 10B): suppressed | RANKL-induced osteoclastogenesis (TRAP assay), incubated for 3 days ([4]; 1′-Acetoxychavicol 0.5 μM and RANKL 5 nM, 3 days, FIG. 11A): able to suppress the RANKL-induced osteoclastogenesis | RANKL-induced osteoclastogenesis (TRAP assay), incubated for longer than 3 days ([4]; 1′-Acetoxychavicol 0.5 μM and RANKL 5 nM, longer time, FIG. 11A): osteoclasts were seen | RANKL-induced osteoclastogenesis, time of addition of 1′-Acetoxychavicol ([4]; RANKL 5 nM, 1′-Acetoxychavicol 0.5 μM added on different days, FIG. 12): suppressed RANKL-induced osteoclastogenesis only when added together with RANKL | number of RANKL-induced osteoclasts versus 1′-Acetoxychavicol concentration ([4]; different concentrations of 1′-Acetoxychavicol, RANKL 5 nM, FIG. 11B): decreased with increasing concentrations of 1′-Acetoxychavicol | number of TRAP-positive cells, MDA-MB-468 co-incubation ([5]; varying concentrations of 1′-Acetoxychavicol, FIG. 15B): decreased as the concentration of 1′-Acetoxychavicol increased | MDA-MB-468 cells induced osteoclastogenesis ([5]; varying concentrations of 1′-Acetoxychavicol, FIGS. 15A and 15B): suppressed | number of TRAP-positive cells, MCF-7 co-incubation ([6]; varying concentrations of 1′-Acetoxychavicol, FIG. 15D): decreased as the concentration of 1′-Acetoxychavicol increased | MCF-7 cells induced osteoclastogenesis ([6]; varying concentrations of 1′-Acetoxychavicol, FIGS. 15C and 15D): suppressed

COc1cc(/C=C/C(=O)CC(=O)/C=C/c2ccc(O)c(OC)c2)ccc1O [curcumin, diferuloylmethane]
RANKL-induced NF-κB activation (EMSA) ([1]; curcumin 50 μM for 2 hours, then RANKL 10 nM, FIG. 1A): completely abrogated the RANKL-induced NF-κB activation | concentration of curcumin at which complete inhibition of RANKL-induced NF-κB activation was observed ([1]; curcumin 2 h, then RANKL 10 nM, FIG. 1B): 50 µM | dose dependence of inhibition of RANKL-induced NF-κB ([1]; indicated concentrations of curcumin 2 h, then RANKL 10 nM, FIG. 1B): increased as the dose of curcumin was increased | RANKL-induced IκBα level (degradation) ([2]; curcumin 50 μM 2 h pretreatment, RANKL 10 nM, FIG. 2A): no decrease in the RANKL-induced IκBα level | RANKL-induced phosphorylation of IκBα ([3]; curcumin 50 μM 2 h pretreatment, FIG. 2B): eliminated the RANKL-induced phosphorylation | phosphorylation of IκBα, curcumin alone ([3]; curcumin alone, no RANKL, FIG. 2B): did not result in phosphorylation of IκBα | RANKL-induced IKK activity (phosphorylation of GST-IκBα substrate) ([7]; curcumin 50 μM 2 h pretreatment, RANKL 10 nM, FIG. 2C upper panel): could not phosphorylate guggulsterone T-IκBα upon RANKL treatment | expression of IKKα [8]: did not alter the expression | expression of IKKβ [9]: did not alter the expression | number of RANKL-induced osteoclasts versus curcumin concentration ([4]; RANKL 5 nM, different concentrations of curcumin, 5 days, FIG. 3B): number of osteoclasts decreased with increasing concentration of curcumin | RANKL-induced osteoclastogenesis, curcumin added together with RANKL ([4]; curcumin 10 μM added at the same time as RANKL 5 nM, 5 days): suppressed osteoclastogenesis maximally | RANKL-induced osteoclastogenesis, curcumin added 24 hours after RANKL [4, 10]: inhibited osteoclastogenesis | RANKL-induced osteoclastogenesis, curcumin added 2 days after RANKL [4, 10]: inhibitory effect decreased significantly

C/C=C1\C(=O)C[C@H]2[C@@H]3CCC4=CC(=O)CC[C@]4(C)[C@H]3CC[C@]12C [guggulsterone]
concentration of guggulsterone at which maximal inhibition of RANKL-induced NF-κB activation was observed ([1]; guggulsterone 4 h, then RANKL 10 nM 25 min, FIG. 6A): 50 µM | NF-κB activation, guggulsterone alone ([1]; guggulsterone in the absence of RANKL, FIG. 6A): no NF-κB activation | dose dependence of suppression of RANKL-induced NF-κB activation (EMSA) ([1]; variable concentrations of guggulsterone 4 h, then RANKL 10 nM 25 min, FIG. 6A): suppression of this activation increased as the concentration of guggulsterone increased | RANKL-induced IKK activity (immune complex kinase assay) ([7]; guggulsterone 50 μM 4 h pretreatment, RANKL 10 nM different times, FIG. 6B): absence of IKK activity upon RANKL treatment | RANKL-induced osteoclastogenesis, time of addition of guggulsterone ([4]; RANKL 5 nM, guggulsterone 5 μM added on different days, FIG. 8): suppressed RANKL-induced osteoclastogenesis only when added together with RANKL | RANKL-induced osteoclastogenesis (TRAP assay) ([4]; guggulsterone 5 μM and RANKL 5 nM for different days, FIG. 7A): suppressed RANKL-induced osteoclastogenesis | number of RANKL-induced TRAP positive cells ([4]; guggulsterone, RANKL 5 nM, FIG. 7B): decreased with increasing concentration of guggulsterone | number of TRAP-positive cells, MDA-MB-468 co-incubation ([5]; varying concentrations of guggulsterone, FIG. 16B): decreased as the concentration of guggulsterone increased | MDA-MB-468 cells induced osteoclastogenesis ([5]; varying concentrations of guggulsterone, FIGS. 16A and 16B): suppressed | number of TRAP-positive cells, MCF-7 co-incubation ([6]; varying concentrations of guggulsterone, FIG. 16D): decreased as the concentration of guggulsterone increased | MCF-7 cells induced osteoclastogenesis ([6]; varying concentrations of guggulsterone, FIGS. 16C and 16D): suppressed
